The test system of one assay is B16. The experiment in a line: Ratio of propargyl amine IC50 to compound IC50 for mouse B16 cells after 48 hrs by MTT assay. Type of assay: functional.
Details: not given
On to `C#CC(=O)Nc1cccc(C#C)c1`, for which the “Ratio IC50” value is given as 127.

A further assay relates to B16. Description: Cytotoxicity against mouse B16 cells after 48 hrs by MTT assay. The settings on record: B16, 48 h. The assay is classed as functional, cell-based.
Turning to `C#CCNC(=O)c1cn(CCOC(C)=O)nn1`, the IC50 is more than 100 µM. The same measure, in the same setting: to `O=C(Nc1ccc(-c2cn(Cc3ccccc3)nn2)cc1)c1cn(Cc2ccccc2)nn1` belongs more than 100 µM. On the same count and under the same terms, to `CCOC(=O)Cn1cc(-c2ccc(NC(=O)c3cn(Cc4ccccc4)nn3)cc2)nn1` belongs 36.3 µM. The same measure, in the same setting: the result for `CC(=O)OCCn1cc(-c2ccc(NC(=O)c3cn(Cc4ccccc4)nn3)cc2)nn1` reads 13.2 µM; that for `CCOC(=O)Cn1cc(C(=O)Nc2ccc(-c3cn(CCOC(C)=O)nn3)cc2)nn1`, more than 100 µM; that for `CC(=O)OCCn1cc(C(=O)Nc2ccc(-c3cn(Cc4ccccc4)nn3)cc2)nn1`, more than 100 µM. The compound `CCOC(=O)Cn1cc(-c2ccc(NC(=O)c3cn(CCOC(C)=O)nn3)cc2)nn1` registered an IC50 of more than 100 µM. The same measure, in the same setting: to `CC(=O)OCCn1cc(C(=O)Nc2ccc(-c3cn(CCOC(C)=O)nn3)cc2)nn1` belongs more than 100 µM; to `O=C(Nc1ccccc1)c1cn(Cc2ccccc2)nn1`, 93 µM. The same measure, in the same setting: the result for `CCOC(=O)Cn1cc(C(=O)Nc2ccccc2)nn1` reads more than 100 µM; that for `CC(=O)OCCn1cc(C(=O)Nc2ccccc2)nn1`, more than 100 µM. On the same count and under the same terms, to `C#Cc1cccc(NC(=O)c2cn(Cc3ccccc3)nn2)c1` belongs 14.5 µM. `C#Cc1cccc(NC(=O)c2cn(CC(=O)OCC)nn2)c1`: the IC50 turned out to be 91 µM.

Take `C#Cc1cccc(NC(=O)c2cn(CCOC(C)=O)nn2)c1`: the IC50 was 25.1 µM.

As to `C#Cc1ccc(NC(=O)c2cn(Cc3ccccc3)nn2)cc1`, the IC50 was more than 100 µM. Same read-out and setting: to `C#Cc1ccc(NC(=O)c2cn(CC(=O)OCC)nn2)cc1` belongs more than 100 µM; to `C#Cc1ccc(NC(=O)c2cn(CCOC(C)=O)nn2)cc1`, 79 µM. Still for that read-out and setting: the result for `O=C(NCc1cn(Cc2ccccc2)nn1)c1cn(Cc2ccccc2)nn1` reads 0.3 µM; that for `CCOC(=O)Cn1cc(CNC(=O)c2cn(Cc3ccccc3)nn2)nn1`, 35 µM; that for `CC(=O)OCCn1cc(CNC(=O)c2cn(Cc3ccccc3)nn2)nn1`, 28 µM. On the same count and under the same terms, the result for `O=C(Cn1cc(C(=O)NCc2cn(Cc3ccccc3)nn2)nn1)OCc1ccccc1` reads 22.4 µM. `CCOC(=O)Cn1cc(CNC(=O)c2cn(CC(=O)OCc3ccccc3)nn2)nn1` showed an IC50 of more than 100 µM.

`CC(=O)OCCn1cc(CNC(=O)c2cn(CC(=O)OCc3ccccc3)nn2)nn1` came in with an IC50 of more than 100 µM. `CC(=O)OCCn1cc(C(=O)NCc2cn(Cc3ccccc3)nn2)nn1` yielded an IC50 of more than 100 µM. In the case of `CCOC(=O)Cn1cc(CNC(=O)c2cn(CCOC(C)=O)nn2)nn1`, the IC50 is more than 100 µM.

`CC(=O)OCCn1cc(CNC(=O)c2cn(CCOC(C)=O)nn2)nn1` registered a half-maximal inhibitory concentration (IC50) of more than 100 µM. Same read-out and setting: the result for `O=C(Nc1cccc(-c2cn(Cc3ccccc3)nn2)c1)c1cn(Cc2ccccc2)nn1` reads 4.5 µM. The compound `CCOC(=O)Cn1cc(-c2cccc(NC(=O)c3cn(Cc4ccccc4)nn3)c2)nn1` had an IC50 of 21 µM. Still for that read-out and setting: the result for `CC(=O)OCCn1cc(-c2cccc(NC(=O)c3cn(Cc4ccccc4)nn3)c2)nn1` reads 25.1 µM; that for `CCOC(=O)Cn1cc(C(=O)Nc2cccc(-c3cn(Cc4ccccc4)nn3)c2)nn1`, 20.4 µM; that for `CCOC(=O)Cn1cc(C(=O)Nc2cccc(-c3cn(CC(=O)OCC)nn3)c2)nn1`, more than 100 µM. The same measure, in the same setting: to `CCOC(=O)Cn1cc(C(=O)Nc2cccc(-c3cn(CCOC(C)=O)nn3)c2)nn1` belongs more than 100 µM; to `CC(=O)OCCn1cc(C(=O)Nc2cccc(-c3cn(Cc4ccccc4)nn3)c2)nn1`, more than 100 µM. Same read-out and setting: to `CCOC(=O)Cn1cc(-c2cccc(NC(=O)c3cn(CCOC(C)=O)nn3)c2)nn1` belongs 63 µM; to `CC(=O)OCCn1cc(C(=O)Nc2cccc(-c3cn(CCOC(C)=O)nn3)c2)nn1`, more than 100 µM; to `C#CCNC(=O)C#C`, 38 µM.

In turn, `C#CC(=O)Nc1cccc(C#C)c1` came in with an IC50 of 0.3 µM.

Take `C#CC(=O)Nc1ccc(C#C)cc1`: the IC50 is 6.3 µM. On the same count and under the same terms, to `C#CCNC(=O)c1cn(Cc2ccccc2)nn1` belongs 65 µM; to `C#CCNC(=O)c1cn(CC(=O)OCc2ccccc2)nn1`, more than 100 µM.

These data come from ChEMBL document CHEMBL2311456, “Synthesis and in vitro evaluation of potential anticancer activity of mono- and bis-1,2,3-triazole derivatives of bis-alkynes” (Eur J Med Chem, 2013).
